{
  "source": "patent US20250064773A1",
  "about": "“TARGETING ERO1 ALPHA WITH AURONE DERIVATIVES” (West Virginia University Board of Governors on behalf of …, priority 2021, published 2025)",
  "tested_on": "PC-9 ERO1α KO clones (CRISPR)",
  "assay": "MTT viability assay, PC-9 ERO1α knockout clones",
  "type": "cell-based",
  "details": "72 hours",
  "method": "We utilized an MTT assay to determine the potency of the compounds for inhibiting cell growth. […] We next asked whether T151742 induced inhibition of cell growth was dependent on ERO1α expression. As shown in FIG. 6C two ERO1α deleted clones in the PC-9 cell line were isolated. Using an MTT assay to determine overall cellar viability, a non-targeted control (scramble), and both ERO1α knockout clones was subjected to treatment with T151742 for 72 hours (See FIG. 6D). […] Though only slight differences were observed between T151742 and EN-460 we tested the effects of these compounds in a clonogenic assay which is a better test for inhibition of self-renewal.\nCell Lines: PC-9 cell line used was obtained from Sigma Aldrich and grown in RPMI 1640 medium with 10% fetal bovine serum and 1% penicillin/streptomycin. HCC4006, U266, MM1.s, and Beas-2B cell lines were obtained from ATCC and cultured in either RPMI 1640 or DMEM with 10% fetal bovine serum and 1% penicillin/streptomycin. All cell lines were also checked for mycoplasma every six months and subjected to short tandem repeat (STR) analysis for cell line validation. CRISPR Cas9: CRISPR Guide RNA 2 targeting ERO1α and CRISPR Guide RNA 4 were purchased from Genscript in the pLentiCRISPR V2 plasmid containing puromycin/ampicillin selection marker. Lentivirus was made from HEK 293T cells by co-transfection with GuideRNA of interest, pVSVG, and pPAX2 plasmids. Lentivirus was collected after 48 hours and concentrated using 40% PEG8000. […] Plate was then read on the BioTek Cytation 5 at 530/590 nm. […] Plate was then read at 570 nm. Treated wells were all compared to DMSO control wells to calculate percent growth inhibition and the IC50 was calculated using GraphPad (log(inhibitor) vs growth inhibition). […] Images were then quantified using ImageJ. […] Cells were aliquoted at 1 million cells per PCR tube in PBS and heated in Bio-Rad T100 thermal cycler at indicated temperatures (RT, 46° C., 48° C., 50° C., 52° C., 54° C., 56°, 58° C., and 60° C.) for 3 minutes and aggregation temperature was determined by western blot analysis. […]",
  "note": "Where two headings read alike, the source gives them in different places.",
  "data": [
    {"smiles": "CN(C)c1ccc(/C=C2\\Oc3cc(O)ccc3C2=O)cc1", "note": "[Compound T151742]", "values": [
      {"measurement": "IC50", "setting": "read-out: IC50, MTT assay, PC-9 ERO1α KO Clone 1", "result": "32.2 ± 1.09", "unit": "µM"},
      {"measurement": "IC50", "setting": "read-out: IC50, MTT assay, PC-9 ERO1α KO Clone 2", "result": "41.5 ± 1.08", "unit": "µM"},
      {"measurement": "fold more resistant, ERO1α deleted cells compared to the control cell line", "setting": "MTT", "result": "2-3 fold"}
    ]}
  ]
}
